This note sets out measurements from patent US20260137706A1, “METHODS OF TREATING INFLAMMATORY DISEASES” (INTERLINE THERAPEUTICS, INC., priority 2023, published 2026).

Assay [1] deals with T1, GST-RIPK2 fusion protein (human RIPK2, amino acids 1-310) (Homo sapiens, UniProt O43353).
T1 construct: made in house; host or cells: baculovirus infected Sf9 cells
The assay can be described thus: RIPK2 binding competition assay (TR-FRET, Tracer 199 displacement). As to conditions: 10 nM Tracer 199, 1 nM GST-RIPK2, read-out: RIPK2 IC50. An excerpt: The ability of selected compounds of Formula (I) to inhibit the binding of an Alexa647-labelled ATP-competitive kinase inhibitor to a GST-RIPK2 fusion protein was quantified employing the TR-FRET-based RIPK2 binding competition assay as described in the following paragraphs.
Recombinant fusion protein of N-terminal Glutathione-S-Transferase (GST) and a fragment of human RIPK2 (amino acids 1-310 of accession number 043353), expressed in baculovirus infected Sf9 cells, purified via glutathione affinity chromatography, was used as GST-RIPK2 fusion protein. Tracer 199 from Life Technologies (catalogue no. PR9115B) was used as Alexa647-labelled ATP-competitive kinase inhibitor.
For the assay, 50 nL of a 100-fold concentrated solution of each test compound in DMSO was pipetted into either a black low volume 384-well microtiter plate or a black 1536-well microtiter plate (both Greiner Bio-One, Frickenhausen, Germany), 3 μL solution of Tracer 199 (16.7 nM=>final concentration in 5 μL assay volume is 10 nM) in aqueous assay buffer (25 mM Tris/HCl pH 7.5, 10 mM magnesium chloride (MgCl2), 5 mM β-glycerophosphate, 2.5 mM dithiothreitol (DTT), 0.5 mM ethylene glycol-bis(2-aminoethylether)-N,N,N′,N′-tetraacetic acid (EGTA), 0.5 mM sodium ortho-vanadate, 0.01% (w/v) bovine serum albumin (BSA), 0.005% (w/v) Pluronic F-127 (Sigma)) were added. Then the binding competition was started by the addition of 2 μL of a solution of the GST-RIPK2 fusion protein (2.5 nM=>final conc. in the 5 μL assay volume is 1 nM) and of Anti-GST-Tb (1.25 nM=>final conc. in the 5 μL assay volume is 0.5 nM), a Lumi4®—Tb cryptate-conjugated anti-GST antibody from PerkinElmer (catalogue no 61GSTTAH), in assay buffer.
The resulting mixture was incubated 45 min at 22° C. to allow the formation of a complex between the Tracer 199, the fusion protein and Anti-GST-Tb. Subsequently, the amount of this complex was evaluated by measurement of the resonance energy transfer from the Tb-cryptate to the Tracer 199. Therefore, the fluorescence emissions at 620 nm and 665 nm after excitation at 337 nm were measured in a TR-FRET reader, e.g. a Pherastar FS (BMG Labtechnologies, Offenburg, Germany) or a Viewlux (PerkinElmer). The ratio of the emissions at 665 nm and at 620 nm was taken as the measure of the amount of the complex. The data were normalized (assay reaction without inhibitor=0% activity, all other assay components but no GST-RIPK2 fusion protein=−100% activity).
Table A1 below lists IC50 values of selected compounds of Formula (I) measured in the RIPK2 binding competition assay.

Assay [2] has as its target T2, binding of His-XIAP(BIR2)-avi fusion protein to GST-RIPK2 fusion protein (RIPK2/XIAP) (Homo sapiens, UniProt O43353).
T2 construct: made in house; host or cells: baculovirus infected Sf9 cells
As to the kind of experiment: RIPK2-XIAP binding competition PPI assay (TR-FRET). As to conditions: RIPK2/XIAP binding competition PPI assay; for Emax: Amax, read-out: PPI Amax bin; for pIC50: read-out: PPI IC50 bin. The text has this: The ability of selected compounds of Formula (I) to inhibit the binding of an His-XIAP(BIR2)-avi fusion protein to a GST-RIPK2 fusion protein was quantified employing the TR-FRET-based competition assay as described in the following paragraphs.
Recombinant fusion protein of N-terminal Glutathione-S-Transferase (GST) and a fragment of human RIPK2 (amino acids 1-310 of accession number 043353), expressed in baculovirus infected Sf9 cells, purified via glutathione affinity chromatography, was used as GST-RIPK2 fusion protein. Recombinant fusion protein of N-terminal 6×Histidine (His), a fragment of human XIAP (amino acids 152-231 of accession number P98170), and C-terminal avi tag, expressed in baculovirus infected Sf9 cells, purified via Nickel NTA affinity chromatography, was used as the His-XIAP(BIR2)-avi fusion protein.
For the assay, a working solution of 1 nM GST-RIPK2, 25 nM His-XIAP(BIR2)-avi, 6 nM Anti-His-XL665 […] (Revvity Catalogue No. 61HISXLB), and 0.5 nM Anti-GST-Tb (Revvity Catalogue No. 61GSTTLB) in 25 mM Tris-HCl 7.5, 0.5 mM ethylene glycol-bis(2-aminoethylether)-N,N,N′,N′-tetraacetic acid (EGTA), 10 mM magnesium chloride (MgCl2), 2.5 mM dithiothreitol (DTT), 0.01% (w/v) bovine serum albumin (BSA), 0.005% (w/v) Pluronic F-127 (Sigma), 0.5 mM sodium ortho-vanadate, 5 mM β-Glycerophosphate disodium salt hydrate (BGP) was prepared. 50 nL of a 100-fold concentrated solution of each test compound in DMSO was dispensed via acoustic dispensing into a white low volume 384-well microtiter plate (Perkin Elmer Catalogue No. 6008280). Subsequently, 5 μL of the assay working solution were added.
The resulting mixture was incubated 120 min at 23° C. Subsequently, the amount of complex formed by the GST-RIPK2, XIAP(BIR2)-avi, Anti-His-XL665, and Anti-GST-Tb was evaluated by measurement of the resonance energy transfer from the Tb-cryptate to the XL665. Therefore, the fluorescence emissions at 520 nm and 665 nm after excitation at 337 nm were measured in a TR-FRET reader, e.g. a Pherastar FS (BMG Labtechnologies, Offenburg, Germany) or an Envision (PerkinElmer). The ratio of the emissions at 665 nm and at 520 nm was taken as the measure of the amount of the complex. The data were normalized (assay reaction without inhibitor=0% activity, 50 nM of GSK583=−100% activity).
For the RIPK2/XIAP binding competition PPI assay Amax values, “A” denotes an Amax of ≥80%; “B” denotes an Amax of 80%>B≥55; “C” denotes an Amax of 55%>C>30; and “D” denotes an Amax of ≤30%.

The test system of assay [3] is NF-κB pathway (SEAP) in THP1-Dual cells. As to the kind of experiment: THP-1 Dual cell SEAP assay (L18-MDP stimulated). As to conditions: Homo sapiens, THP1-Dual, read-out: NF-κB THP1 IC50 bin. It counts as cell-based. Here is the method: THP1-Dual™ cells (InvivoGen Cat #thpd-nfis) allow simultaneous assessment of the NF-κB pathway, by monitoring the activity of secreted embryonic alkaline phosphatase (SEAP) as well as the IRF pathway, by assessing the activity of a secreted luciferase (Lucia). Cells were cultured according to manufacturers' recommendations. For the assay, cell concentration was adjusted to 7.14×10^5 cells/mL in assay media (RPMI 1640, 2 mM L-Glutamine, 25 mM HEPES, 10% fetal bovine serum (heat-inactivated for 30 min at 56° C.), Pen-Strep (100 U/mL)) and 35 µL of cell suspension (˜25,000 cells) per well were added to a flat bottom 384-well plate (white opaque). Plate was centrifuged at 300 g for 2 min, compounds were added in serial dilution series according to the plate layout (volumes ˜500 nL-0.0152 nL) and plate was incubated at 37° C. in 5% CO2 for 30 min. Using assay media, a L18-MDP stock solution, that results in a final concentration of 10 ng/mL L18-MDP in each well when adding 15 μL to each well, was prepared. 15 μL of L18-MDP stock solution was added to each well, while 15 μL of assay media was added to the negative control wells. Plates were subsequently incubated at 37° C. in 5% CO2 overnight (20-24 h).
For the SEAP assay: without disturbing the cells at the bottom of the well, 15 μL supernatant was transferred to a clear 384-well flat bottom plate and 35 μL QUANTI-Blue Solution per well was added. Following a 2 h incubation at 37° C., the optical density (OD) was measured at 620-655 nm using a microplate reader (PheraStar FS microplate reader with protocol for OD 620-655 nm).
Values of media-only wells were subtracted and % inhibition for each compound concentration relative to the DMSO/L18-MDP-treated controls was calculated. Inhibition values+/−SD were fitted by non-linear regression using Prism software (GraphPad PRISM Software) to calculate IC50 values.

pIC50: −log10 of the molar value.

T2 sequence (O43353 1-310 limits assumed): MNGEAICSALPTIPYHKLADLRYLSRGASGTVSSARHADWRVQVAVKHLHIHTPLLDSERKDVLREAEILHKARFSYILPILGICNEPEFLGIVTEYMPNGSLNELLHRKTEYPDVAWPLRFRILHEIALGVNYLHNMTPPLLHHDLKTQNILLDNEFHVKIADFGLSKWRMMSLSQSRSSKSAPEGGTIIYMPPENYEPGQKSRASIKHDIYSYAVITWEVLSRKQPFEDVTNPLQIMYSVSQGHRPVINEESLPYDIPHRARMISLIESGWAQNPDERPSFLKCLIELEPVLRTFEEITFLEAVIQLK
T1 sequence (O43353 1-310): as the sequence (O43353 1-310 limits assumed) above

Regarding `CC(CO)COc1cc2ncc(-c3cc(F)c(N)nc3F)n2cc1S(=O)(=O)C(C)(C)C` (racemic) [Example 174, 3-((3-(6-amino-2,5-difluoropyridin-3-yl)-6-(tert-butylsulfonyl)imidazo[1,2-a]pyridin-7-yl)oxy)-2-methylpropan-1-ol], the negative-log IC50 (pIC50) was 8.60 to 9.00 in assay [1], 8.60 to 9.00 in assay [2] and 6.60 to 7.30 in assay [3]. Also, the Emax in assay [2] is above 80%.
Regarding `CC(C)(C)C(C)(O)c1cn2c(-c3cc(F)c(N)nc3F)cnc2cc1OCCO` (single isomer, unassigned) [Example 295], the negative-log IC50 (pIC50) was 7.70 to 8.60 in assay [1], 7.70 to 8.60 in assay [2] and below 6.00 in assay [3]. In addition, in assay [2], the Emax is above 80%.
Regarding `COc1cc2ncc(-c3cc(F)nc(NCCCO)c3)n2cc1C(F)(F)F` [Example 1, 3-((6-Fluoro-4-(7-methoxy-6-(trifluoromethyl)imidazo[1,2-a]pyridin-3-yl)pyridin-2-yl)amino)propan-1-ol], the values for the pIC50 in assay [1], in assay [2] and in assay [3] were 7.70 to 8.60, below 7.70 and 6.60 to 7.30, respectively. Also, in assay [2], the Emax was below 30%.
For `COc1cc2ncc(-c3cc(N)nc(F)c3)n2cc1C(F)(F)F` [Example 2, 6-fluoro-4-(7-methoxy-6-(trifluoromethyl)imidazo[1,2-a]pyridin-3-yl)pyridin-2-amine], in that order: 7.70 to 8.60, below 7.70, 6.60 to 7.30 and below 30%.
For the compound `Nc1cc(-c2cnn3ccc(C(F)(F)F)cc23)cc(F)n1` [Example 3, 6-fluoro-4-(5-(trifluoromethyl)pyrazolo[1,5-a]pyridin-3-yl)pyridin-2-amine], the pIC50 in assay [1] is below 7.70; in assay [2] it was below 7.70; in assay [3], 6.00 to 6.60. Moreover, the Emax in assay [2] is below 30%.
Turning to `COc1cc2nc(Cl)c(-c3ccc(N)nc3F)n2cc1S(=O)(=O)C(C)(C)C` [Example 10, 5-(6-(tert-butylsulfonyl)-2-chloro-7-methoxyimidazo[1,2-a]pyridin-3-yl)-6-fluoropyridin-2-amine], the pIC50 in assay [1] and in assay [2] was below 7.70 in each case. In assay [2], the Emax is above 80%.
For `CC(C)(C)C(C)(O)c1cn2c(-c3cc(F)c(N)nc3F)cnc2cc1OCCO` (stereo not shown) [Example 193, 2-(3-(6-amino-2,5-difluoropyridin-3-yl)-7-(2-hydroxyethoxy)imidazo[1,2-a]pyridin-6-yl)-3,3-dimethylbutan-2-ol], in assay [1], the pIC50 is 7.70 to 8.60. In assay [2], the Emax was above 80%.
In the case of `COc1cc2ncc(-c3cc(F)c(OC)c(NS(=O)(=O)c4cc(C)sn4)c3)n2cc1S(=O)(=O)C(C)(C)C` [Example 292, N-(5-(6-(tert-butylsulfonyl)-7-methoxyimidazo[1,2-a]pyridin-3-yl)-3-fluoro-2-methoxyphenyl)-5-methylisothiazole-3-sulfonamide], in assay [2], the Emax was 30 to 55% and the pIC50 is above 9.00. Further, in assay [3], the pIC50 is 6.60 to 7.30.
The like results for `COc1cc2ncc(-c3cc(F)c(OC)c(NS(=O)(=O)c4coc(C)n4)c3)n2cc1S(=O)(=O)C(C)(C)C` [Example 293, N-(5-(6-(tert-butylsulfonyl)-7-methoxyimidazo[1,2-a]pyridin-3-yl)-3-fluoro-2-methoxyphenyl)-2-methyloxazole-4-sulfonamide] were, in that order, 30 to 55%, above 9.00 and above 7.30.
For `COc1cc2ncc(-c3cccc(NS(=O)(=O)c4cnn(C)c4)c3)n2cc1S(=O)(=O)C(C)(C)C` [Example 294, N-(3-(6-(tert-butylsulfonyl)-7-methoxyimidazo[1,2-a]pyridin-3-yl)phenyl)-1-methyl-1H-pyrazole-4-sulfonamide], in that order: above 80%, above 9.00 and 6.60 to 7.30.
The like results for `CC(=O)COc1cc2ncc(-c3cc(Cl)c(N)nc3F)n2cc1S(=O)(=O)C(C)(C)C` [Example 300, 1-((3-(6-amino-5-chloro-2-fluoropyridin-3-yl)-6-(tert-butylsulfonyl)imidazo[1,2-a]pyridin-7-yl)oxy)propan-2-one] were, in that order, above 80%, 7.70 to 8.60 and 6.00 to 6.60.
Regarding `COc1cc2ncc(-c3cc(F)c(OC)c(NCc4cnn(C)c4)c3)n2cc1S(=O)(=O)C(C)(C)C` [Example 301, 5-(6-(tert-butylsulfonyl)-7-methoxyimidazo[1,2-a]pyridin-3-yl)-3-fluoro-2-methoxy-N-((1-methyl-1H-pyrazol-4-yl)methyl)aniline], in assay [2], the Emax was 55 to 80% and the pIC50 is above 9.00. For the same compound, the negative logarithm of the IC50 (pIC50) in assay [3] is 6.60 to 7.30.
